The record followed here is the supplement of paper PMC3493320.

pIC50: −log10 of the molar value.

This assay concerns NCI-H295R. Briefly: IC50 (antiproliferative, ATP content). Particulars: 48 h. In a few lines:
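Adrenocortical carcinoma cells in 1536-well plates (1500 per well, serum-free DMEM plus ITS, overnight culture) were exposed for 48 h at 37 °C, 5% CO2 to pin-transferred compounds at 8 final concentrations ranging 0.6 nM to 46 µM. ATP content was then read as CellTiter-Glo luminescence and normalised to vehicle and positive-control wells. The IC50 came from logistic curve fits, and any compound lacking a concentration response was recorded as above the top dose.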
Turning to `C[N+]1(C)[C@@H]2CC[C@H]1C[C@H](OC(=O)c1c[nH]c3ccccc13)C2.[I-]`, the pIC50 is under 4.34.

As for `COc1ccc(-c2cc(C(F)F)nn2-c2ccc(S(N)(=O)=O)cc2)cc1F`, the negative-log IC50 (pIC50) was under 4.34.

With `C=CC[N@@+]1(C)CC[C@]23c4c5ccc(O)c4O[C@H]2C(=O)CC[C@@]3(O)[C@H]1C5.[I-]`, the pIC50 is under 4.34.

For `Nc1ccc(S(=O)(=O)Nc2ccccn2)cc1`, the pIC50 was under 4.34.

`N[C@H](C(=O)O)[C@@H](O)c1ccc(O)c(O)c1` gave a pIC50 of under 4.34.

In turn, `COC(C)(C)CCCC(C)C/C=C/C(C)=C/C(=O)OC(C)C` (stereo unspecified) had a pIC50 of under 4.34.

For `Cc1ccc(N(CC2=NCCN2)c2cccc(O)c2)cc1`, the pIC50 is under 4.34.

Molecule `Cl.Nc1cc(Cl)c(NC2=NCCN2)c(Cl)c1` showed a pIC50 of under 4.34.

In the case of `O=C(CCBr)N1CCN(C(=O)CCBr)CC1`, the pIC50 is under 4.34.

`O=C1O[C@H]([C@@H](O)CO)C(O)=C1O`: the pIC50 is under 4.34.

In turn, `CC(C)(C)NCC(O)COc1cccc2c1CCC(=O)N2.Cl` (stereo unspecified) showed a pIC50 of under 4.34.

`Nc1nc(=O)c2ncn(CCC(CO)CO)c2[nH]1`: the negative logarithm of the IC50 (pIC50) was under 4.34.

`O=C(O)CNC(=O)c1ccccc1I` had a negative-log IC50 (pIC50) of under 4.34.

As for `CCCCCCCC(=O)OCC(O)CO` (stereo unspecified), the pIC50 was under 4.34.

`CCOc1ccc(C(=O)OCCN(CC)CC)cc1` gave a pIC50 of under 4.34.

Molecule `O=C(O)COc1ccccc1/C=N/NC(=O)c1ccncc1` gave a pIC50 of under 4.34.

The molecule `CC(=O)NCCCS(=O)(=O)[O-].CC(=O)NCCCS(=O)(=O)[O-].[Ca+2]` showed a pIC50 of under 4.34.

On to `CC(C)[C@H](NC(=O)[C@H](CC(=O)O)NC(=O)[C@H](CCCCN)NC(=O)[C@@H](N)CCCNC(=N)N)C(=O)N[C@@H](Cc1ccc(O)cc1)C(=O)O`, for which the pIC50 is under 4.34.

In the case of `N[C@H](CO)C(=O)O`, the pIC50 was under 4.34.

As for `O=C([C@@H]([C@]1=CC=CC=C1)N=C)N[C@@](C2=O)([H])[C@@](N2[C@H]3[C@@]([O-])=O)([H])SC3(C)C.[Na+]`, the pIC50 was under 4.34.

In turn, `CC1(C)CO[C@@H](CC(=O)O)CN1` showed a pIC50 of under 4.34.

As to `CCCCCCCC/C=C\CCCCCCCCN`, the pIC50 is under 4.34.

With `COc1cc(C(=S)N2CCOCC2)cc(OC)c1OC`, the pIC50 is under 4.34.

Regarding `NC[C@H]1O[C@H](O[C@H]2[C@H](O)[C@@H](O[C@H]3O[C@H](CO)[C@@H](O)[C@H](N)[C@H]3O)[C@H](N)C[C@@H]2N)[C@H](O)[C@@H](O)[C@@H]1O.O=S(=O)(O)O`, the negative-log IC50 (pIC50) is under 4.34.

Take `Cc1cn([C@H]2C[C@H](N=[N+]=[N-])[C@@H](CO)O2)c(=O)[nH]c1=O`: the pIC50 was under 4.34.

Molecule `CC(=O)[C@H]2CC[C@H]3[C@@H]4\C=C/C1=C/C(=O)CC[C@@]1(C)[C@@H]4CC[C@]23C` showed a pIC50 of under 4.34.

`COc1ccccc1N1CCN(CC(O)COc2cccc3ccccc23)CC1` (stereo unspecified): the negative logarithm of the IC50 (pIC50) is under 4.34.

Molecule `CC(C)NCC(O)c1ccc(N)c(C#N)c1` (stereo unspecified) showed a negative-log IC50 (pIC50) of under 4.34.

As to `CCN1CCC[C@H]1CNC(=O)c1cc(S(N)(=O)=O)ccc1OC`, the pIC50 is under 4.34.

`O=C(O)c1ccccc1C(=O)Nc1ccc(S(=O)(=O)Nc2nccs2)cc1` showed a pIC50 of under 4.34.

For the molecule `CC1=C(/C=C/C(C)=C/C=C/C(C)=C/C(=O)Oc2c(C)c(C)c3c(c2C)CC[C@@](C)(CCC[C@H](C)CCC[C@H](C)CCCC(C)C)O3)C(C)(C)CCC1`, the pIC50 is under 4.34.

`CCCc1ncc(C[n+]2ccccc2C)c(N)n1.Cl.[Cl-]`: the pIC50 is under 4.34.

`O=C1C[C@@H]([C@](N[C@@H](CC3=CNC=N3)C(N2[C@]([H])(C(N)=O)CCC2)=O)=O)NC(N1C)=O` had a pIC50 of under 4.34.

With `CNCC(O)c1ccc(OC(=O)C(C)(C)C)c(OC(=O)C(C)(C)C)c1.Cl` (stereo unspecified), the negative-log IC50 (pIC50) was under 4.34.

Molecule `Br.COc1c2c(cc3c1OCO3)CCN(C)C2` gave a pIC50 of under 4.34.

As to `CC1=C(C/C=C(\C)CCC[C@H](C)CCC[C@H](C)CCCC(C)C)C(=O)c2ccccc2C1=O`, the pIC50 is under 4.34.

For the molecule `COCC(=O)N(c1c(C)cccc1C)C(C)C(=O)OC` (stereo unspecified), the pIC50 is under 4.34.

`ClCc1ccccc1.O=C1C[C@@H]2OCC=C3CN4CC[C@]56c7ccccc7N1[C@H]5[C@H]2[C@H]3C[C@H]46`: the pIC50 was under 4.34.

Take `C/C(=N\Cc1ccccc1)c1ccccc1O`: the pIC50 is under 4.34.

The molecule `COC1=CC=C2[C@H]3Cc4ccc(OC)c5c4[C@@]2(CCN3C)[C@H]1O5` had a pIC50 of under 4.34.

Take `CC(=O)OCC(=O)NCCCOc1cccc(CN2CCCCC2)c1.Cl`: the pIC50 is under 4.34.

Consider `CN1C2=CC(=O)C(=NNC(N)=O)C=C2CC1S(=O)(=O)[O-].[Na+]` (stereo unspecified), for which the pIC50 was under 4.34.

On to `CC(C)(C)C(=O)NCCCC(=O)O`, for which the pIC50 was under 4.34.

`CC(C)[C@@H](C)/C=C/[C@@H](C)[C@H]1CC[C@H]2/C(=C/C=C3\C[C@@H](O)CC[C@@H]3C)CCC[C@]12C` gave a pIC50 of under 4.34.

Regarding `ClC1=CC=C(\C3=C2/CCNCC2)C(CCC4=C3N=CC=C4)=C1`, the pIC50 is under 4.34.

Turning to `CC1(c2ccccc2)OC(C(=O)O)=CC1=O` (stereo unspecified), the pIC50 is under 4.34.

As for `CS(=O)(=O)c1ccc([C@@H](O)[C@@H](CF)NC(=O)C(Cl)Cl)cc1`, the pIC50 is under 4.34.

As for `OC[C@H]1OC([S][Au])[C@H](O)[C@@H](O)[C@@H]1O` (stereo partly specified), the pIC50 is under 4.34.

The molecule `Oc1c(Br)cc(Br)cc1Br` showed a pIC50 of under 4.34.

On to `O=C1CCc2cc(OCCCCc3nnnn3C3CCCCC3)ccc2N1`, for which the pIC50 was under 4.34.

`O=[C@@](N\C(C([O-])=O)=C/CCCCSC[C@H](N)C(O)=O)[C@@H](C1)C1(C)C.[Na+]` gave a pIC50 of under 4.34.

Molecule `CC(C)c1cccc(C(C)C)c1O` had a pIC50 of under 4.34.

Take `CN(C)CCCOc1nn(Cc2ccccc2)c2ccccc12.Cl`: the pIC50 was under 4.34.

As for `NC(=O)OCC(COC(N)=O)c1ccccc1`, the pIC50 is under 4.34.

On to `c1csc(C2(N3CCCCC3)CCCCC2)c1`, for which the pIC50 is under 4.34.

For the molecule `CCCCCCCCCCCCCCCCN`, the pIC50 is under 4.34.

Molecule `CCCCC/C=C\C/C=C\C/C=C\C/C=C\CCCC(=O)NCC(=O)O` gave a negative-log IC50 (pIC50) of under 4.34.

In the case of `CC(C)(Oc1ccc(Cl)cc1)C(=O)O`, the pIC50 is under 4.34.

In the case of `CCCC(=O)Nc1ccc(OCC(O)CNC(C)C)c(C(C)=O)c1.Cl` (stereo unspecified), the pIC50 was under 4.34.

`CN1CCN(C2=Nc3cc(Cl)ccc3Nc3ccccc32)CC1` showed a pIC50 of under 4.34.

The molecule `CNC(=O)Oc1ccc2c(c1)[C@]1(C)CCN(C)[C@@H]1N2C` gave a negative-log IC50 (pIC50) of under 4.34.

Molecule `CCCCCCC(=O)CCCCCC/C=C/C[C@@H](O)[C@H](O)[C@@](N)(CO)C(=O)O` had a pIC50 of under 4.34.

Turning to `CCN(CC)CCOC(=O)C(c1ccccc1)c1ccccc1.Cl`, the negative-log IC50 (pIC50) is under 4.34.

In the case of `CC1=C(/C=C/C(C)=C/C=C/C(C)=C/C=C/C=C(C)/C=C/C=C(C)/C=C/C2=C(C)CCCC2(C)C)C(C)(C)CCC1`, the pIC50 was under 4.34.

Consider `Cl.F/C(COc1ccc2c(c1)[nH]c1ccccc12)=C1\CN2CCC1CC2`, for which the negative-log IC50 (pIC50) was under 4.34.

In the case of `CC(C)(C)NCC(O)COc1ccc(NC(=O)NC2CCCCC2)cc1` (stereo unspecified), the pIC50 is under 4.34.

As a reminder, the pIC50 is −log10 of the IC50, conventionally taken in molar units. High values mean a small IC50, low ones a large IC50.
